Source: the NIST ThermoML archive (doi:10.1021/je300938w)
± gives the expanded uncertainty stated by the source.

Columns and labels:
[1] = refractive index (Na D-line) (dimensionless); conditions: 101.33 kPa, Liquid, Standard Abbe refractometry
[2] = 101.33 kPa, Liquid; for viscosity: Concentric cylinders viscometry; for mass density: Vibrating tube method

Structure (SMILES)	refractive index ([1]; 298.15 K)	viscosity ([2]; 298.15 K)	mass density ([2]; 298.15 K)	refractive index ([1]; 323.15 K)	viscosity ([2]; 323.15 K)	mass density ([2]; 323.15 K)	other results
CC(O)CNCC(C)O (centres undefined) [N-(2-hydroxypropyl)-2-hydroxy-1-propanamine]				1.45139 ± 0.00068	123.21 ± 4.4 mPa·s	984.835 ± 1.1 kg/m3	refractive index ([1]; 313.15 K): 1.45517 ± 0.00068; viscosity ([2]; 313.15 K): 308.54 ± 11 mPa·s; mass density ([2]; 313.15 K): 992.46 ± 1.1 kg/m3
CC(O)CN(CC(C)O)CC(C)O (centres undefined) [triisopropanolamine]				1.45233 ± 0.0012	132.3 ± 5.5 mPa·s	990.616 ± 6.8 kg/m3	
O [water]	1.33249 ± 0.00042	0.9123 ± 0.0097 mPa·s					refractive index ([1]; 293.15 K): 1.33304 ± 0.00042; viscosity ([2]; 293.15 K): 1.019 ± 0.01 mPa·s

The next lines start with results.

refractive index ([1]; 298.15 K)	viscosity ([2]; 298.15 K)	mass density ([2]; 298.15 K)	Structure (SMILES)	refractive index ([1]; 323.15 K)	viscosity ([2]; 323.15 K)	mass density ([2]; 323.15 K)	other results
1.4459 ± 0.00082	23.26 ± 0.41 mPa·s	956.644 ± 1 kg/m3	CC(O)CN (centres undefined) [1-amino-2-propanol]				
1.4764 ± 0.00073	566.57 ± 46 mPa·s	1093.22 ± 0.17 kg/m3	OCCNCCO [diethanolamine]				
